Test results published in ChEMBL document CHEMBL1201862, “PubChem BioAssay data set” (2004).
Calls of active or inactive are those of the source.

How the values were obtained:
[1] = Luminescence Cell-Based Dose Retest to Confirm Inhibitors of Cancer Stem Cells. [Related pubchem assays (depositor defined):AID2717, AID2721]; type: functional; details: Homo sapiens
[2] = Shn3 3'UTR reporter inhibitors, dose response, cell-based, Clone20 osteoblasts, firefly luciferase, cherry-picked (AID 624132); type: functional;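 further: firefly luciferase luminescence from reporter carrying the Shn3 3'UTR in osteoblasts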
[3] = HepG2 cell cytotoxicity, dose response, cytotoxicity control for Shn3 inhibitor project, CellTiter-Glo, cherry-picked (AID 624134); type: functional, cell-based
[4] = control 3'UTR Renilla luciferase suppression, dose response, counter-screen for Shn3 inhibitor project, cell-based, Clone20-Shn3RL, cherry-picked (AID 624133); type: functional
[5] = molecular target: T1, Ubiquitin-conjugating enzyme E2 N (Homo sapiens, UniProt P61088); type: functional;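 further: Dose-response confirmation in a TR-FRET assay detecting UBC13-driven polyubiquitin chain formation, inhibition measured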
T1 sequence (P61088 whole entry): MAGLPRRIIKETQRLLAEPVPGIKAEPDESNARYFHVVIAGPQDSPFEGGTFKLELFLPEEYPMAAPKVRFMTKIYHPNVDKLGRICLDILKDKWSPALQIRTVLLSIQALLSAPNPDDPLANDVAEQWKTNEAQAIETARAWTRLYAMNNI

[6] = growth suppression of PTEN-null colon cells, dose response, cell-based, HCT116 PTEN knockout (AID 1047); type: functional;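 further: HCT116 colon tumor cells with PTEN knocked out; cells exposed to compound for 60 hours before readout; potency for loss of cell viability measured by luminescence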
[7] = growth suppression of beta-catenin-knockout colon cells, dose response, cell-based, HCT116, human colon tumor (AID 1045); type: functional;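 further: HCT116 colon tumor cells with beta catenin knocked out; cells exposed to compound for 60 hours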
[8] = HepG2 cell cytotoxicity, dose response, cytotoxicity control, plate reader, cherry-pick, antagonist series (AID 743416); type: functional, cell-based
[9] = A549 cell cytotoxicity, dose response, cytotoxicity control, plate reader, cherry-pick, antagonist series (AID 743412); type: functional, cell-based
P388 = assay: cells; type: functional; details: Mus musculus
SN12K1 = assay: cells; type: functional; details: Homo sapiens
P388/ADR = assay: cells; type: functional; details: Mus musculus
[10] = inhibitors of clade B AD8 Env fusion, dose response, cell-based, cherry-pick (AID 652062); type: functional;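 further: luciferase signal from cell-cell fusion driven by HIV-1 clade B AD8 Env; potency is for inhibitors of fusion seen as a drop in luminescence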
[11] = inhibitors of HIV Env-driven cell fusion, dose response, cherry-pick (AID 652057); type: functional, cell-based

In the case of CC(C)(C)c1ccc(C(=O)NCCCN2CCN(CCCNC(=O)c3ccc(C(C)(C)C)cc3)CC2)cc1, the AC50 [1] is reported as 6.71 µM (active), the AC50 [2] is reported as 4.84 µM (active) and the AC50 [3] is reported as 15.2 µM (active). The AC50 [4] was 1.62 µM (active), the IC50 [5] was > 20 µM (inactive) and the EC50 [6] was 27.9 µM (active). For the same compound, the EC50 [7] was 5.18 µM (active).
With COc1ccccc1CN(C)C[C@@H]1OCc2cnnn2CCCC(=O)N([C@H](C)CO)C[C@H]1C the AC50 [8] was 39.8 µM (active) and the AC50 [9] was > 52 µM (inactive).
For Nc1c(C(=O)Nc2ccc(C3=NCCN3)cc2)cccc1C(=O)Nc1ccc(C2=NCCN2)cc1, the GI50 (P388) was 12.5 µM (inactive), the GI50 (SN12K1) was > 100 µM (inactive) and the GI50 (P388/ADR) was > 100 µM (inactive).
With O=C1C(=O)c2cc([N+](=O)[O-])ccc2-c2ccc([N+](=O)[O-])cc21 the GI50 (P388) was 0.201 µM (active), the GI50 (SN12K1) was 0.29 µM (active) and the GI50 (P388/ADR) was 0.292 µM (active).
For Oc1ncc(N(CCCl)CCCl)c(O)n1 [URACIL MUSTARD], the GI50 (P388) was 1.26 µM (inactive), the GI50 (SN12K1) was 17.4 µM (inactive) and the GI50 (P388/ADR) was 1.77 µM (inactive).
In the case of CCCCCCCCCCCCCCCCOCC(COP(=O)([O-])OCC[N+](C)(C)C)OCCCCCCCCCCCCCCCC (stereo unspecified), the GI50 (P388) is reported as > 100 µM (inactive), the GI50 (SN12K1) is reported as > 100 µM (inactive) and the GI50 (P388/ADR) is reported as > 100 µM (inactive).
For Cc1c(Cl)cccc1N/C(SCC(=O)N1CCCCCC1)=C(/C#N)c1nc2ccccc2s1, the EC50 [6] was 4.06 µM (active) and the EC50 [7] was 4.02 µM (active).
With COc1cccc(S(=O)(=O)N(C)C[C@H]2Oc3cc(C4=CCCC4)ccc3S(=O)(=O)N([C@H](C)CO)C[C@H]2C)c1 the AC50 [10] was 3.77 µM (active) and the AC50 [11] was 3.31 µM (active).
With CN(c1ccccc1)c1c(-c2ccccc2)c(=O)oc2c1ccc1occc12 the GI50 (P388) was 37.8 µM (inactive), the GI50 (SN12K1) was > 100 µM (inactive) and the GI50 (P388/ADR) was 74.6 µM (inactive).
For O=C(NC(=S)Nc1ccc(NC(=O)c2cccs2)cc1)c1cc2ccccc2o1, the EC50 [6] was 15.5 µM (active) and the EC50 [7] was 22.6 µM (active).
In the case of COc1ccc2c(c1[N+](=O)[O-])CC[C@@H]1[C@@H]2CC[C@]2(C)C(=O)CC[C@@H]12, the GI50 (P388) is reported as > 25 µM (inactive), the GI50 (SN12K1) is reported as > 25 µM (inactive) and the GI50 (P388/ADR) is reported as 20.9 µM (inactive).
For COc1cc2c(cc1Oc1c(Oc3c(O)c(OC)cc4c3C(CC(C)C)N(C)CC4)c(OC)cc3c1C(CC(C)C)N(C)CC3)C(CC(C)C)N(C)CC2 (stereo unspecified), the GI50 (P388) was 0.279 µM (active), the GI50 (SN12K1) was 0.794 µM (active) and the GI50 (P388/ADR) was 0.706 µM (active).
For C=C1CC(OC)(C(O)C(=O)N[C@H]2OCO[C@H]3C2O[C@H](C[C@@H](CO)OC)C(C)(C)C3OC)O[C@H](C)[C@@H]1C (stereo partly specified), the GI50 (P388) was < 0.00931 µM (active), the GI50 (SN12K1) was < 0.00931 µM (active) and the GI50 (P388/ADR) was < 0.00931 µM (active).
In the case of O=C(N/N=C/c1cccs1)c1cccc(NC(=O)c2ccc(Cl)cc2)c1, the EC50 [6] is reported as 61.1 µM (active) and the EC50 [7] is reported as 55.4 µM (active).
For CCN(CC)c1c(C)c(C(=O)OC)nn1-c1ccccc1, the GI50 (P388) was 34.8 µM (inactive), the GI50 (SN12K1) was > 100 µM (inactive) and the GI50 (P388/ADR) was 31.6 µM (inactive).
For COc1ccc(/C(O)=C/c2nc3ccc(C(=O)NCCc4cccc(C)c4)cc3nc2O)cc1OC, the EC50 [6] was 6.66 µM (active) and the EC50 [7] was 5.65 µM (active).
